For data set [1] the following is noted: cited from earlier work; for pI: amino acid isoelectric point; for pKa (—COOH group) / pKa (—NH3 group): amino acid.
Data set [2] can be described thus: Spectrocolorimeter (CM-5) measurement of samples before and after adsorption and desorption measurement. The data set is classed as physicochemical. On the procedure: Changes in the samples between before and after the measurement of the adsorption and desorption isotherms were measured using Konica Minolta, Inc.'s spectrocolorimeter (CM-5). The measurement conditions were reflection measurement and the SCI method, and the measurements were taken with the observation window of a 3-mm φ target mask covered with the glass container after the adsorption and desorption measurement. A blank tube, with no sample placed in it, was also subjected to the measurement, through which a measurement in a transparent state was determined. The measurements are converted values for a 10° field of view and a D65 light source.

The conditions of data set [3]: for State of sample after the end of the measurement: FIG. 2, after adsorption and desorption measurement; for Deliquescence: conclusion from isotherm and appearance; for Appearance after storage: tubes tightly closed, stored 9 days at normal temperature after measurement.
Method: For the measurement, MicrotracBEL (MicrotracBEL Corporation) BELSORP MAX III was used. As a pretreatment of samples, the samples were vacuum-dried at 105° C. until the leakage was 1 Pa/min or less.
The measurement conditions were set as follows. • At relative pressures (humidity levels) from 0.025 to 0.3: measurements are taken at relative pressure intervals of 0.025 • At relative pressures (humidity levels) beyond 0.3 to 0.95: measurements are taken at relative pressure intervals of 0.05
After reaching a relative pressure of 0.95: measurements are taken at equal relative pressure intervals until a relative pressure of 0.1 (For TSP, however, the relative pressure limit was set to approximately 0.5 because measurement accuracy is reduced due to a prolonged measurement time.)
The equilibration conditions were that at relative pressures of 0.9 or lower, pressure changes should be 0.3% or smaller variations over 300 sec, and that at relative pressures of 0.9 or higher, pressure changes should be 0.3 Pa, as a pressure value, or smaller variations over 300 sec.
Setting [4] is: after adsorption and desorption measurement.
Where [5] appears, read: before adsorption and desorption measurement.
Setting [6] is: 9 days after adsorption and desorption measurement.

Molecules are shown by their SMILES.

In the case of `N[C@@H](Cc1c[nH]c2ccccc12)C(=O)O` [Tryptophan], in data set [1], the pI is on record as 5.89 and the “pKa (—COOH group)” value is recorded as 2.83.
Turning to `CC[C@H](C)[C@H](N)C(=O)O` [Isoleucine], in data set [1], the pI was 6.02 and the “pKa (—COOH group)” value is on record as 2.36.
As to `N[C@@H](CS)C(=O)O` [Cysteine], in data set [1], the pI was 5.07 and the “pKa (—NH3 group)” value was 10.28.
Take `O=C(O)[C@@H]1CCCN1` [Proline]: the pI in data set [1] is on record as 6.3.
Take `N=C(N)NCCC[C@H](N)C(=O)O` [Arginine, arginine]: in data set [1], the pI is on record as 10.76 and the “pKa (—COOH group)” value was 2.17. Also, in data set [2] (setting [4]), the “L* (D65)” value amounted to 94.8, the “a* (D65)” value is reported as −0.2 and the “b* (D65)” value amounted to 0.1. Also, in data set [2] (setting [5]), the “L* (D65)” value amounted to 99.0, the “a* (D65)” value is −0.1 and the “b* (D65)” value worked out at 0.4.
With `O=P([O-])([O-])[O-].[Na+].[Na+].[Na+]` [TSP, trisodium phosphate, reference compound], in data set [2] (setting [4]), the “L* (D65)” value is reported as 92.4, the “a* (D65)” value is −0.1 and the “b* (D65)” value was determined as 0.1. In data set [2] (setting [5]), the “L* (D65)” value is 98.5, the “a* (D65)” value worked out at 0.0 and the “b* (D65)” value is listed as 0.5.
As to `N[C@@H](CCC(=O)O)C(=O)[O-].[Na+]` [MSG, Na glutamate], in data set [2] (setting [4]), the “L* (D65)” value is listed as 33.7, the “a* (D65)” value was −0.1 and the “b* (D65)” value is recorded as −0.2. For the same molecule, in data set [2] (setting [5]), the “L* (D65)” value is listed as 84.8, the “a* (D65)” value is −0.2 and the “b* (D65)” value is 1.1. In data set [3], the “State of sample after the end of the measurement” value is on record as “transitioned to a transparent liquid state”, the Deliquescence result was “have deliquescence” and the Appearance after storage result is reported as “became a whitened film form”.
Take `N[C@@H](CCC(=O)O)C(=O)O` [Glutamic acid]: the pI in data set [1] is reported as 3.22. Besides, in data set [2] (setting [6]), the “L* (D65)” value was 53.6 and the “a* (D65)” value was −0.7.
On to `NCC(=O)O` [Glycine], for which the pI in data set [1] is recorded as 5.97.
Regarding `O=C1CC[C@@H](C(=O)O)N1` [Pyroglutamic acid], the pI in data set [1] is reported as 5.68.
As to `N[C@@H](Cc1c[nH]cn1)C(=O)O` [Histidine], the pI in data set [1] is listed as 7.59.
For the molecule `N[C@@H](CC(=O)O)C(=O)O` [Aspartic acid], in data set [1], the pI is 2.77.
Consider `NCCCC[C@H](N)C(=O)O` [Lysine], for which, in data set [1], the pI is 9.74 and the “pKa (—COOH group)” value is listed as 2.18.
In the case of `O=C(O)[C@@H]1C[C@@H](O)CN1` [Hydroxyproline], in data set [1], the “pKa (—COOH group)” value was 1.82 and the “pKa (—NH3 group)” value is listed as 9.65.
For the molecule `NCCCC(=O)O` [GABA, γ-aminobutyric acid], in data set [1], the pI was 7.3 and the “pKa (—COOH group)” value is reported as 4.23. Also, in data set [2] (setting [6]), the “L* (D65)” value turned out to be 33.1 and the “a* (D65)” value is given as −0.3. Further, in data set [2] (setting [4]), the “L* (D65)” value is 26.5, the “a* (D65)” value is recorded as −0.3 and the “b* (D65)” value is on record as −0.9. Besides, in data set [2] (setting [5]), the “L* (D65)” value came out at 87.1 and the “a* (D65)” value is −0.1. In data set [3], the “State of sample after the end of the measurement” value is recorded as “transitioned to a transparent liquid state”, the Deliquescence result is “have deliquescence” and the Appearance after storage entry is listed as “maintained the degree of transparency”.
Take `CSCC[C@H](N)C(=O)O` [Methionine]: in data set [1], the pI is recorded as 5.74, the “pKa (—COOH group)” value was 2.28 and the “pKa (—NH3 group)” value was 9.21.
With `N[C@@H](Cc1ccccc1)C(=O)O` [Phenylalanine], in data set [1], the pI is 5.48, the “pKa (—COOH group)” value is on record as 1.83 and the “pKa (—NH3 group)” value is reported as 9.13.
As for `NC(=O)C[C@H](N)C(=O)O` [Asparagine], in data set [1], the pI is 5.41 and the “pKa (—COOH group)” value is given as 2.02.
Turning to `CC(C)[C@H](N)C(=O)O` [Valine], in data set [1], the pI is on record as 5.96 and the “pKa (—NH3 group)” value is recorded as 9.62.
`C[C@H](N)C(=O)O` [Alanine]: in data set [1], the pI is 6 and the “pKa (—COOH group)” value is 2.34.
Consider `N[C@@H](Cc1ccc(O)cc1)C(=O)O` [Tyrosine], for which the pI in data set [1] is on record as 5.66.
On to `C[C@@H](O)[C@H](N)C(=O)O` [Threonine], for which, in data set [1], the pI is 5.6 and the “pKa (—COOH group)” value is listed as 2.09.
As to `N[C@@H](CO)C(=O)O` [Serine], in data set [1], the pI is 5.68.

Values taken from patent publication US20250194663A1, “ORAL POUCH PRODUCT CONTAINING AMINO ACID OR SALT THEREOF” (Japan Tobacco Inc., priority 2022, published 2025).
